Measured values reported in the supplement of paper PMC4862054.
Several values for one entry are separate records, joined by “and”; a condition that tells them apart may be missing. Identical values can stand only once.

Assays:
Experiment in all cases: normalised viability (% of control), CellTiter-Blue; higher = more viable cells (about 100 = DMSO control)
Details in all cases: incubation time: 72 h
CAL-148 = tested on: CAL-148
Description: (§1)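 DSRT, CellTiter-Blue viability, 72 h incubation. Signal is normalised to DMSO and benzethonium chloride controls. Value is the normalised response at dose 7.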

CAL-51 = tested on: CAL-51
Description: as §1

CAL-85-1 = tested on: CAL-85-1
Description: as §1

DU-4475 = tested on: DU-4475
Description: as §1

HDQ-P1 = tested on: HDQ-P1
Description: as §1

MDA-MB-453 = tested on: MDA-MB-453
Description: as §1

Row | SMILES | normalised viability (CAL-148) | normalised viability (CAL-51) | normalised viability (CAL-85-1) | normalised viability (DU-4475) | normalised viability (HDQ-P1) | normalised viability (MDA-MB-453)
1 | Cc1c(N)nc([C@H](CC(N)=O)NC[C@H](N)C(N)=O)nc1C(=O)N[C@H](C(=O)N[C@H](C)[C@@H](O)[C@H](C)C(=O)N[C@H](C(=O)NCCc1nc(-c2nc(C(=O)NCCC[S+](C)C)cs2)cs1)[C@@H](C)O)[C@@H](OC1OC(CO)C(O)C(O)C1OC1OC(CO)C(O)C(OC(N)=O)C1O)c1cnc[nH]1 (stereo partly drawn) [Bleomycin] (1000 nM) | 105% | 105% | 94.5% | 98.9% | 88% | 94.3%
2 | Cc1cc2c(F)c(Oc3ncnn4cc(OC[C@@H](C)O)c(C)c34)ccc2[nH]1 [Brivanib] (100 nM) | 111% | 93.7% | 87% | 104% | 110% | 90%
3 | CCCCCOC(=O)Nc1nc(=O)n([C@@H]2O[C@H](C)[C@@H](O)[C@H]2O)cc1F [Capecitabine] (1000 nM) | 105% and 102% | 106% and 104% | 79.7% and 96.2% | 87.4% and 85.9% | – | 86.8% and 94.9%
4 | CC(C)C[C@H](NC(=O)[C@H](CCc1ccccc1)NC(=O)CN1CCOCC1)C(=O)N[C@@H](Cc1ccccc1)C(=O)N[C@@H](CC(C)C)C(=O)[C@@]1(C)CO1 [Carfilzomib] (100 nM) | 2.75% | 10.2% | 3.69% | 1.6% | 0.52% | 12.1%
5 | Nc1nc(Cl)nc2c1ncn2[C@@H]1O[C@H](CO)[C@@H](O)[C@@H]1F [Clofarabine] (1000 nM) | 40.8% | 52.1% | 56.1% | 29% | 101% | 53.6%
6 | CCN(CC)CCOc1ccc(C(=C(Cl)c2ccccc2)c2ccccc2)cc1 [Clomifene] (1000 nM) | 110% | 85.4% | 97.6% | 103% | 128% | 108%
7 | C[C@@H]1C[C@H]2[C@@H]3CCC4=CC(=O)C=C[C@]4(C)[C@@]3(F)[C@@H](O)C[C@]2(C)[C@@]1(O)C(=O)CO [Dexamethasone] (1000 nM) | 115% | 101% | 103% | 106% | 117% | 69.8%
8 | CC(C)C(=O)Nc1ccc([N+](=O)[O-])c(C(F)(F)F)c1 [Flutamide] (1000 nM) | 104% | 115% | 84.2% | 102% | 101% | 90.1%
9 | COc1cc2c(Oc3ccc(NC(=O)C4(C(=O)Nc5ccc(F)cc5)CC4)cc3F)ccnc2cc1OCCCN1CCOCC1 [Foretinib] (100 nM) | 92.8% | 85.4% | 84.7% | 100% | 77.3% | 91.1%
10 | NC(=O)NO [Hydroxyurea] (10000 nM) | 112% | 104% | 102% | 101% | 103% | 108%
11 | O=NN(CCCl)C(=O)NC1CCCCC1 [Lomustine] (1000 nM) | 92.3% | 110% | 93.3% | 90.6% | 97.6% | 94.4%
12 | O=C(O)CC[C@H]1CC[C@@](c2cc(F)ccc2F)(S(=O)(=O)c2ccc(Cl)cc2)CC1 [MK-0752] (100 nM) | 122% | 101% | 102% | 122% | 110% | 109%
13 | NC1(c2ccc(-c3nc4ccn5c(=O)[nH]nc5c4cc3-c3ccccc3)cc2)CCC1 [MK-2206] (100 nM) | 91.5% | 100% | 86.7% | 92.7% | 82.9% | 84.4%
14 | NC(=O)c1cccc2cn(-c3ccc([C@@H]4CCCNC4)cc3)nc12 [MK-4827] (1000 nM) | 87.4% | 90.8% | 93% | 78.9% | 91.8% | 93.3%
